Measured values reported in ChEMBL document CHEMBL4393691, “Design, synthesis and antitumor evaluation of novel celastrol derivatives” (Eur J Med Chem, 2019).
Activity calls are given as the source filed them. The calls are words filed in the database; no cut-off is given here.

Columns and labels:
HepG2 = assay: Cytotoxicity against human HepG2 cells assessed as reduction in cell viability incubated for 48 hrs by MTT assay; format: functional, cell-based; conditions: HepG2, 48 h
A549 [1] = assay: cells; conditions: Homo sapiens, A549, 48 h
MCF7 [2] = assay: cells; conditions: Homo sapiens, MCF7, 48 h
MCF7 [3] = assay: Antiproliferative activity against human MCF7 cells assessed as reduction in cell viability at 1 uM incubated for 48 hrs by MTT assay relative to control; format: functional; conditions: MCF7, 48 h
A549 [4] = assay: Inhibition of Hsp90-Cdc37 interaction in human A549 cells assessed as decrease in Cdc37 protein level at 5 uM incubated for 6 hrs by immunoprecipitation assay; format: cell-based
A549 [5] = assay: Induction of apoptosis in human A549 cells assessed as viable cells at 2 uM incubated for 24 hrs by AnnexinV-FITC/propidium iodide staining-based flow cytometric analysis (reference value: 88.1%); format: functional; conditions: A549, 24 h, read-out: Activity
A549 [6] = assay: Induction of apoptosis in human A549 cells assessed as early apoptotic cells at 2 uM incubated for 24 hrs by AnnexinV-FITC/propidium iodide staining-based flow cytometric analysis (reference value: 4.1%); format: functional
A549 [7] = assay: Induction of apoptosis in human A549 cells assessed as late apoptotic cells at 2 uM incubated for 24 hrs by AnnexinV-FITC/propidium iodide staining-based flow cytometric analysis (reference value: 4.2%); format: functional
A549 [8] = assay: Induction of apoptosis in human A549 cells assessed as necrotic cells at 2 uM incubated for 24 hrs by AnnexinV-FITC/propidium iodide staining-based flow cytometric analysis (reference value: 3.6%); format: functional

| SMILES | inhibition at 1 µM (MCF7 [3]) [%] | other results |
| --- | --- | --- |
| COC(=O)[C@]12CCC(C)(C)C[C@H]1[C@H]1C(=O)C=C3[C@@]4(C)C=C(C#N)C(=O)C(C)(C)[C@@H]4CC[C@@]3(C)[C@]1(C)CC2 [BARDOXOLONE METHYL] | – | IC50 (HepG2): 260 nM; IC50 (A549 [1]): 360 nM; IC50 (MCF7 [2]): 350 nM |
| COC(=O)/C=C/c1cc(OC)c(OCCOC(=O)[C@]2(C)CC[C@]3(C)CC[C@]4(C)C5=CC=C6C(=CC(=O)C(O)=C6C)[C@]5(C)CC[C@@]4(C)[C@@H]3C2)c(OC)c1 | 60.3 | IC50 (HepG2): 890 nM; IC50 (A549 [1]): 1070 nM; IC50 (MCF7 [2]): 880 nM |
| COC(=O)/C=C/c1cc(OC)c(OCCCOC(=O)[C@]2(C)CC[C@]3(C)CC[C@]4(C)C5=CC=C6C(=CC(=O)C(O)=C6C)[C@]5(C)CC[C@@]4(C)[C@@H]3C2)c(OC)c1 | 8.61 | – |
| COC(=O)/C=C/c1cc(OC)c(OC/C=C/COC(=O)[C@]2(C)CC[C@]3(C)CC[C@]4(C)C5=CC=C6C(=CC(=O)C(O)=C6C)[C@]5(C)CC[C@@]4(C)[C@@H]3C2)c(OC)c1 | 18 | – |
| COC(=O)/C=C/c1ccc(OCCOC(=O)[C@]2(C)CC[C@]3(C)CC[C@]4(C)C5=CC=C6C(=CC(=O)C(O)=C6C)[C@]5(C)CC[C@@]4(C)[C@@H]3C2)c(OC)c1 | 27.7 | – |
| COC(=O)/C=C/c1ccc(OC/C=C/COC(=O)[C@]2(C)CC[C@]3(C)CC[C@]4(C)C5=CC=C6C(=CC(=O)C(O)=C6C)[C@]5(C)CC[C@@]4(C)[C@@H]3C2)c(OC)c1 | 32.5 | – |
| COC(=O)/C(C#N)=C\c1ccc(OC)c(OCCCOC(=O)[C@]2(C)CC[C@]3(C)CC[C@]4(C)C5=CC=C6C(=CC(=O)C(O)=C6C)[C@]5(C)CC[C@@]4(C)[C@@H]3C2)c1 | 65.9 | IC50 (HepG2): 710 nM; IC50 (A549 [1]): 780 nM; IC50 (MCF7 [2]): 640 nM |
| COC(=O)/C(C#N)=C/c1ccc(OCCCOC(=O)[C@]2(C)CC[C@]3(C)CC[C@]4(C)C5=CC=C6C(=CC(=O)C(O)=C6C)[C@]5(C)CC[C@@]4(C)[C@@H]3C2)cc1F | 8.36 | – |
| COC(=O)/C(C#N)=C\c1ccc(OC)c(OCCOC(=O)[C@]2(C)CC[C@]3(C)CC[C@]4(C)C5=CC=C6C(=CC(=O)C(O)=C6C)[C@]5(C)CC[C@@]4(C)[C@@H]3C2)c1 | 79.7 | IC50 (HepG2): 370 nM; IC50 (A549 [1]): 460 nM; IC50 (MCF7 [2]): 300 nM |
| COC(=O)/C=C/c1cc(OC)c(OCCCCOC(=O)[C@]2(C)CC[C@]3(C)CC[C@]4(C)C5=CC=C6C(=CC(=O)C(O)=C6C)[C@]5(C)CC[C@@]4(C)[C@@H]3C2)c(OC)c1 | 7.52 | – |
| CC1=C(O)C(=O)C=C2C1=CC=C1[C@@]2(C)CC[C@@]2(C)[C@@H]3C[C@](C)(C(=O)O)CC[C@]3(C)CC[C@]12C [CELASTROL] | 60.2 | IC50 (HepG2): 1330 nM; inhibition (A549 [4]): Active; viability at 2 µM (A549 [5]): 64.1%; Activity (A549 [6]): 14.9%; Activity (A549 [7]): 16.1%; Activity (A549 [8]): 4.8%; IC50 (A549 [1]): 1280 nM; IC50 (MCF7 [2]): 1060 nM |
| COC(=O)/C(C#N)=C\c1cccc(OCCCOC(=O)[C@]2(C)CC[C@]3(C)CC[C@]4(C)C5=CC=C6C(=CC(=O)C(O)=C6C)[C@]5(C)CC[C@@]4(C)[C@@H]3C2)c1 | 47 | – |
| COC(=O)/C(C#N)=C/c1ccc(OCCCOC(=O)[C@]2(C)CC[C@]3(C)CC[C@]4(C)C5=CC=C6C(=CC(=O)C(O)=C6C)[C@]5(C)CC[C@@]4(C)[C@@H]3C2)c(F)c1 | 18.8 | – |
| COC(=O)/C=C\c1ccc(OC)c(OCCCOC(=O)[C@]2(C)CC[C@]3(C)CC[C@]4(C)C5=CC=C6C(=CC(=O)C(O)=C6C)[C@]5(C)CC[C@@]4(C)[C@@H]3C2)c1 | 67.4 | IC50 (HepG2): 650 nM; IC50 (A549 [1]): 700 nM; IC50 (MCF7 [2]): 670 nM |
| COC(=O)/C(C#N)=C/c1ccc(OCCCCOC(=O)[C@]2(C)CC[C@]3(C)CC[C@]4(C)C5=CC=C6C(=CC(=O)C(O)=C6C)[C@]5(C)CC[C@@]4(C)[C@@H]3C2)c(OC)c1 | 13.8 | – |
| COC(=O)/C=C/c1ccc(OCCCCOC(=O)[C@]2(C)CC[C@]3(C)CC[C@]4(C)C5=CC=C6C(=CC(=O)C(O)=C6C)[C@]5(C)CC[C@@]4(C)[C@@H]3C2)cc1 | 0.94 | – |
| COC(=O)/C=C/c1ccc(OCCCOC(=O)[C@]2(C)CC[C@]3(C)CC[C@]4(C)C5=CC=C6C(=CC(=O)C(O)=C6C)[C@]5(C)CC[C@@]4(C)[C@@H]3C2)c(OC)c1 | 78.5 | IC50 (HepG2): 530 nM; IC50 (A549 [1]): 560 nM; IC50 (MCF7 [2]): 450 nM |

| SMILES | inhibition at 1 µM (MCF7 [3]) [%] | other results |
| --- | --- | --- |
| COC(=O)/C=C/c1ccc(OCCCCOC(=O)[C@]2(C)CC[C@]3(C)CC[C@]4(C)C5=CC=C6C(=CC(=O)C(O)=C6C)[C@]5(C)CC[C@@]4(C)[C@@H]3C2)c(OC)c1 | 15.9 | – |
| COC(=O)/C(C#N)=C/c1ccc(OCCCOC(=O)[C@]2(C)CC[C@]3(C)CC[C@]4(C)C5=CC=C6C(=CC(=O)C(O)=C6C)[C@]5(C)CC[C@@]4(C)[C@@H]3C2)cc1C | 19.8 | – |
| COC(=O)/C=C/c1ccc(OC/C=C/COC(=O)[C@]2(C)CC[C@]3(C)CC[C@]4(C)C5=CC=C6C(=CC(=O)C(O)=C6C)[C@]5(C)CC[C@@]4(C)[C@@H]3C2)cc1 | 5.29 | – |
| COC(=O)/C(C#N)=C/c1ccc(OC/C=C/COC(=O)[C@]2(C)CC[C@]3(C)CC[C@]4(C)C5=CC=C6C(=CC(=O)C(O)=C6C)[C@]5(C)CC[C@@]4(C)[C@@H]3C2)c(OC)c1 | 25.7 | – |
| COC(=O)/C(C#N)=C/c1ccc(OCCCOC(=O)[C@]2(C)CC[C@]3(C)CC[C@]4(C)C5=CC=C6C(=CC(=O)C(O)=C6C)[C@]5(C)CC[C@@]4(C)[C@@H]3C2)cc1 | 22.1 | – |
| COC(=O)/C(C#N)=C/c1ccc(OCCCOC(=O)[C@]2(C)CC[C@]3(C)CC[C@]4(C)C5=CC=C6C(=CC(=O)C(O)=C6C)[C@]5(C)CC[C@@]4(C)[C@@H]3C2)cc1OC | 11 | – |
| COC(=O)/C=C\c1ccc(OC)c(OCCCCOC(=O)[C@]2(C)CC[C@]3(C)CC[C@]4(C)C5=CC=C6C(=CC(=O)C(O)=C6C)[C@]5(C)CC[C@@]4(C)[C@@H]3C2)c1 | 40.1 | – |
| COC(=O)/C(C#N)=C/c1ccc(OCCOC(=O)[C@]2(C)CC[C@]3(C)CC[C@]4(C)C5=CC=C6C(=CC(=O)C(O)=C6C)[C@]5(C)CC[C@@]4(C)[C@@H]3C2)c(OC)c1 | 59.9 | – |
| COC(=O)/C(C#N)=C/c1ccc(OCCCOC(=O)[C@]2(C)CC[C@]3(C)CC[C@]4(C)C5=CC=C6C(=CC(=O)C(O)=C6C)[C@]5(C)CC[C@@]4(C)[C@@H]3C2)c(OC)c1 | 66.5 | IC50 (HepG2): 750 nM; IC50 (A549 [1]): 660 nM; IC50 (MCF7 [2]): 650 nM |
| COC(=O)/C=C/c1ccc(OCCCOC(=O)[C@]2(C)CC[C@]3(C)CC[C@]4(C)C5=CC=C6C(=CC(=O)C(O)=C6C)[C@]5(C)CC[C@@]4(C)[C@@H]3C2)cc1 | 50.5 | – |
| COC(=O)/C(C#N)=C\c1ccc(OC)c(OC/C=C/COC(=O)[C@]2(C)CC[C@]3(C)CC[C@]4(C)C5=CC=C6C(=CC(=O)C(O)=C6C)[C@]5(C)CC[C@@]4(C)[C@@H]3C2)c1 | 45.6 | – |
| COC(=O)/C=C\c1ccc(OC)c(OC/C=C/COC(=O)[C@]2(C)CC[C@]3(C)CC[C@]4(C)C5=CC=C6C(=CC(=O)C(O)=C6C)[C@]5(C)CC[C@@]4(C)[C@@H]3C2)c1 | 49.2 | – |
| COC(=O)/C=C\c1cccc(OCCCOC(=O)[C@]2(C)CC[C@]3(C)CC[C@]4(C)C5=CC=C6C(=CC(=O)C(O)=C6C)[C@]5(C)CC[C@@]4(C)[C@@H]3C2)c1 | 33 | – |
| COC(=O)/C(C#N)=C\c1ccc(OC)c(OCCCCOC(=O)[C@]2(C)CC[C@]3(C)CC[C@]4(C)C5=CC=C6C(=CC(=O)C(O)=C6C)[C@]5(C)CC[C@@]4(C)[C@@H]3C2)c1 | 27.4 | – |
| COC(=O)/C(C#N)=C/c1ccc(OCCCOC(=O)[C@]2(C)CC[C@]3(C)CC[C@]4(C)C5=CC=C6C(=CC(=O)C(O)=C6C)[C@]5(C)CC[C@@]4(C)[C@@H]3C2)c(C)c1 | 21.9 | – |
| COC(=O)/C=C/c1ccc(OCCOC(=O)[C@]2(C)CC[C@]3(C)CC[C@]4(C)C5=CC=C6C(=CC(=O)C(O)=C6C)[C@]5(C)CC[C@@]4(C)[C@@H]3C2)cc1 | 63.9 | IC50 (HepG2): 600 nM; IC50 (A549 [1]): 600 nM; IC50 (MCF7 [2]): 670 nM |
